Laboratory results: ChEMBL document CHEMBL5325415, “Falcipains: Biochemistry, target validation and structure-activity relationship studies of inhibitors as antimalarials” (Eur J Med Chem, 2023)
Each block holds one compound with its values, some of them ahead of it. Where a SMILES comes first, the peptide text is derived from it. [ ]: non-standard residue; d: D form. The star is where a group is joined. Ac6c = NC1(C(=O)O)CCCCC1; Cbz = O=C(OCc1ccccc1)*; CH2F = FC*

Experiments:
Falcipain 2 [1] = biological target: T1, Falcipain 2 (Plasmodium falciparum, UniProt Q9N6S8); assay: Inhibition of Plasmodium falciparum Itg2 trophozite extracts FP-2 using Z-phe-Arg-AMC as substrate pretreated with enzyme for 30 mins followed by substrate addition and measured for 30 mins by spectrofluorometry
T1 sequence (Q9N6S8 whole entry): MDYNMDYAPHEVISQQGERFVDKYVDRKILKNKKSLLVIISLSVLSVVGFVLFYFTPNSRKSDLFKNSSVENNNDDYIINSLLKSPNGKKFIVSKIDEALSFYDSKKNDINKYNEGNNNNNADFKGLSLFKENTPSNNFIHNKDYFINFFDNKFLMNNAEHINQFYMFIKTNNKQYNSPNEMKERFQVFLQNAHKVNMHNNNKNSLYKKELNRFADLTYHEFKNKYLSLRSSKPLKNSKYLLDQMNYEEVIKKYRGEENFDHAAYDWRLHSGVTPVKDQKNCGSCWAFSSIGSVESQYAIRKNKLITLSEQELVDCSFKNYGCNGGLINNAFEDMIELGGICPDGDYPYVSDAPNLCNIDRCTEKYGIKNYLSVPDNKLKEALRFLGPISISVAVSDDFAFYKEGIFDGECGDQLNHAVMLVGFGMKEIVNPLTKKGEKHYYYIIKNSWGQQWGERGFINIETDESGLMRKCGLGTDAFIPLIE

[2] = Inhibition of Plasmodium vinckei extracts VP-2 using Z-phe-Arg-AMC as substrate pretreated with enzyme for 30 mins followed by substrate addition and measured for 30 mins by spectrofluorometry
Plasmodium falciparum [3] = assay: Antiplasmodial activity against Plasmodium falciparum D6; assay type: functional, organism-based
Plasmodium falciparum [4] = assay: Antiplasmodial activity against Plasmodium falciparum Dd2; assay type: functional, organism-based
Plasmodium falciparum [5] = assay: Antiplasmodial activity against Plasmodium falciparum HB3; assay type: functional, organism-based
Plasmodium falciparum [6] = assay: Antiplasmodial activity against Plasmodium falciparum ItG; assay type: functional, organism-based
Plasmodium falciparum [7] = assay: Antiplasmodial activity against Plasmodium falciparum W2; assay type: functional, organism-based
Plasmodium vinckei = assay: Antimalarial activity against Plasmodium vinckei infected in Swiss webster mouse assessed as disease cure rate at 50 to 100 mg/kg, po administered twice a day for 4 days; assay type: functional; settings: dose 50-100 mg/kg, time 4 day
Plasmodium falciparum [8] = assay: Antimalarial activity against Chloroquine-resistant Plasmodium falciparum RKL9 infected in human erythrocytes assessed as inhibition of parasite growth incubated for 72 hrs by Giemsa staining based analysis; assay type: functional, organism-based; settings: RKL9, Erythrocyte
Plasmodium falciparum [9] = assay: Antimalarial activity against Chloroquine-sensitive Plasmodium falciparum 3D7 infected in human erythrocytes assessed as inhibition of parasite growth incubated for 72 hrs by Giemsa staining based analysis; assay type: functional, organism-based; settings: 3D7, Erythrocyte
Falcipain 2 [10] = biological target: T1, Falcipain 2; assay: Inhibition of Plasmodium falciparum FP-2 using Z-Phe-Arg-AMC as substrate pretreated with enzyme for 10 mins followed by susbtrate addition and measured after 10 mins by fluorescence based analysis
Heme = assay: Inhibition of heme (unknown origin) assessed as inhibition of hemozoin formation incubated for 24 hrs by FBIT test
Falcipain 2 [11] = biological target: T1, Falcipain 2; assay: Inhibition of Plasmodium falciparum FP-2 using Cbz-Leu-Arg-AMC as substrate and measured for 5 to 10 mins by fluorescence spectrophotometric analysis
[12] = system: Cathepsin B (relative to Plasmodium falciparum FP-2); assay: Selectivity index, ratio of Ki for inhibition of human Cathepsin B to Ki for inhibition of Plasmodium falciparum FP-2; assay type: toxicity; settings: read-out: Ratio Ki
[13] = system: Cathepsin L (relative to Plasmodium falciparum FP-2); assay: Selectivity index, ratio of Ki for inhibition of human Cathepsin L to Ki for inhibition of Plasmodium falciparum FP-2; assay type: toxicity; settings: read-out: Ratio Ki
Falcipain 2 [14] = biological target: T1, Falcipain 2; assay: Inhibition of Plasmodium falciparum FP-2 using Z-phe-Arg-AMC as substrate pretreated with enzyme for 30 mins followed by substrate addition and measured for 30 mins by fluorescence based analysis
Plasmodium falciparum [15] = assay: Antimalarial activity against Plasmodium falciparum FCB1 infected in erythrocytes assessed as inhibition of [3H]hypoxanthine incorporation incubated for 24 to 48 hrs by beta counting analysis; assay type: functional, organism-based; settings: FCB1, Erythrocyte
Falcipain 2 [16] = biological target: T1, Falcipain 2; assay: Inhibition of Plasmodium falciparum FP-2 using Z-Leu-Arg-AMC as substrate pretreated with enzyme for 30 mins followed by substrate addition and measured for 30 mins by spectrofluorometry
Plasmodium falciparum [17] = assay: Antiplasmodial activity against chloroquine-sensitive Plasmodium falciparum D6 infected in human RBC assessed as inhibition of parasite growth measured after 72 hrs by Malstat assay; assay type: functional, organism-based; settings: D6, Erythrocyte
Plasmodium falciparum [18] = assay: Antiplasmodial activity against chloroquine-resistant Plasmodium falciparum W2 infected in human RBC assessed as inhibition of parasite growth measured after 72 hrs by Malstat assay; assay type: functional, organism-based; settings: W2, Erythrocyte
Falcipain 2 [19] = biological target: T1, Falcipain 2; assay: Binding affinity to Plasmodium falciparum FP-2 by surface plasmon resonance analysis
Falcipain 2 [20] = biological target: T1, Falcipain 2; assay: Inhibition of Plasmodium falciparum trophozite extracts FP-2
Plasmodium falciparum [21] = assay: Antiplasmodial activity against Plasmodium falciparum ItG2; assay type: functional; settings: read-out: LD50 (the source's name)
Plasmodium falciparum [22] = assay: Antiplasmodial activity against Plasmodium falciparum FCR3; assay type: functional, organism-based
Falcipain 2 [23] = biological target: T1, Falcipain 2; assay: Inhibition of Plasmodium falciparum FP-2 using Z-Leu-Arg-AMC as substrate pretreated with enzyme for 30 mins followed by substrate addition and measured for 15 mins by spectrofluorometry
Plasmodium falciparum [24] = assay: Antiplasmodial activity against Plasmodium falciparum W2 infected in human erythrocytes assessed as inhibition of parasite growth measured after 48 hrs by flow cytometry; assay type: functional, organism-based; settings: W2, Erythrocyte
Falcipain-3 = biological target: T2, Falcipain-3 (Plasmodium falciparum 3D7, UniProt Q8IIL0); assay: Inhibition of Plasmodium falciparum D10 trophozite lysates FP-3 pretreated with compound for 1 hr followed by labeling with Cy5-DCG04 for 1 hr by fluorescence scanning analysis; assay type: subcellular
T2 sequence (Q8IIL0 whole entry): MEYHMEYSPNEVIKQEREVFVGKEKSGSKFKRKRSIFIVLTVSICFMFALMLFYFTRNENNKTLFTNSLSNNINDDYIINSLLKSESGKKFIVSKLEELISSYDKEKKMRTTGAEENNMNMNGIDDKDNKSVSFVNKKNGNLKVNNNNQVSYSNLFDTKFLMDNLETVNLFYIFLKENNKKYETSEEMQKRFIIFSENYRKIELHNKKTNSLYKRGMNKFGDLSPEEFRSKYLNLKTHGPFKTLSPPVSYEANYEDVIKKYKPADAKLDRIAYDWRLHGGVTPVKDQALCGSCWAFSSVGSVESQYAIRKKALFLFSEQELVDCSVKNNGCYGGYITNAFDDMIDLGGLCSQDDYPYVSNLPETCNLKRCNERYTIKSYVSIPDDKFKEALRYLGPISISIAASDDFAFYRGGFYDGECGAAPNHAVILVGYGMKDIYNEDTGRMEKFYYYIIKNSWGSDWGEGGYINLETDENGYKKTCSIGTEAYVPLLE

IC50 (Falcipain 2 [1]): 2 nM | IC50 [2]: 20 nM | IC50 (Plasmodium falciparum [3]): 0.22 nM | IC50 (Plasmodium falciparum [4]): 0.32 nM | IC50 (Plasmodium falciparum [5]): 0.19 nM | IC50 (Plasmodium falciparum [6]): 0.18 nM | IC50 (Plasmodium falciparum [7]): 0.2 nM
Structure (SMILES): CC(C)C[C@H](NC(=O)N1CCN(C)CC1)C(=O)N[C@H](/C=C/S(=O)(=O)c1ccc2ccccc2c1)CCc1ccccc1
Activity (Plasmodium vinckei): 40%

Structure (SMILES): COc1cccc(/C=C(\C#N)c2nc3ccccc3[nH]2)c1
IC50 (Plasmodium falciparum [8]): 3410 nM | IC50 (Plasmodium falciparum [9]): 690 nM | IC50 (Falcipain 2 [10]): 2210 nM | IC50 (Heme): 260 nM

Ki (Falcipain 2 [11]): 65 nM
Structure (SMILES): O=CCNC(=O)C1(NC(=O)OCc2ccccc2)CCCCC1 (Cbz-[Ac6c]-Gly-aldehyde)
selectivity ratio [12]: 20.8 | selectivity ratio [13]: 12.6

IC50 (Falcipain 2 [14]): > 100000 nM | IC50 (Plasmodium falciparum [15]): 19000 nM
Structure (SMILES): COc1cc2cc(/C=C/C(=O)c3ccc(Cl)cc3Cl)c(Cl)nc2cc1OC

Structure (SMILES): O=C(/C=C\c1ccc(O)c(O)c1)O[C@H]1CO[C@@H](Oc2c(-c3ccc(O)cc3)oc3cc(O)cc(O)c3c2=O)[C@H](OC(=O)/C=C/c2ccc(O)cc2)[C@H]1O
IC50 (Falcipain 2 [16]): 440 nM | IC50 (Plasmodium falciparum [17]): 2900 nM | IC50 (Plasmodium falciparum [18]): 2800 nM | Kd (Falcipain 2 [19]): 33600 nM

Structure (SMILES): N=C(N)NCCC[C@H](NC(=O)[C@H](Cc1ccccc1)NC(=O)OCc1ccccc1)C(=O)CF (Cbz-Phe-Arg-CH2F)
IC50 (Plasmodium falciparum [3]): 64 nM | IC50 (Plasmodium falciparum [5]): 100 nM | IC50 (Plasmodium falciparum [7]): 64 nM | IC50 (Falcipain 2 [20]): 0.36 nM | LC50 (Plasmodium falciparum [21]): 64 nM | IC50 (Plasmodium falciparum [22]): 64 nM

IC50 (Falcipain 2 [23]): 25500 nM
Structure (SMILES): COc1cc(OC)c(/C=C2\SC(=O)N(CC(=O)N3CCN(c4ccccc4)CC3)C2=O)c(OC)c1
EC50 (Plasmodium falciparum [24]): 450 nM

Ki (Falcipain 2 [11]): 1200 nM
Structure (SMILES): N#CCNC(=O)C1(NC(=O)OCc2ccccc2)CCCCC1
selectivity ratio [12]: > 100 | selectivity ratio [13]: 22.1

Structure (SMILES): CC[C@H](C)[C@@H](C(=O)O[C@@H](CC(C)C)C(=O)N[C@@H](CC(C)C)C(=O)N[C@@H](C)/C=C/C(=O)N1C(=O)C=C(OC)[C@@H]1C)N(C)C [GALLINAMIDE A]
IC50 (Falcipain-3): 22 nM
